The record followed here is patent US12122761B2, “2-azaspiro[3.4]octane derivatives as M4 agonists” (NOVARTIS AG, priority 2019, dated 2024).

What is called EC50 is the concentration giving half of the maximal effect.

The target in assay [1] is T1, human cloned CHRM3 receptor (M3_CHO cells) (Homo sapiens, UniProt P20309).
T1 construct: expressed in transfected cells; host or cells: CHO-K1
Put plainly: CHRM3 Ca++ Flux Assay (agonist mode, FDSS 7000EX). Format: cell-based. The settings on record: for Emax: Percent Activity measured to EC100 of Carbachol, read-out: M3 FDSS PA; for EC50: agonist mode, geometric mean if tested more than once, read-out: M3 FDSS EC50. An outline of the steps:
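Stable CHO-K1 lines (human M3 or M5), calcium-dye loaded ≥1 h, assayed in Ca/Mg-free HBSS + 20 mM HEPES + 2.5 mM probenecid. 11-pt dose response, triplicate, 3 min fluorescence read. 4-parameter regression; % activity vs carbachol EC100.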

Assay [2] deals with T2, human cloned CHRM4 receptor (M4_CHO cells) (Homo sapiens, UniProt P08173).
T2 construct: expressed in transfected cells; host or cells: CHO-K1
T2 sequence (P08173 1-479): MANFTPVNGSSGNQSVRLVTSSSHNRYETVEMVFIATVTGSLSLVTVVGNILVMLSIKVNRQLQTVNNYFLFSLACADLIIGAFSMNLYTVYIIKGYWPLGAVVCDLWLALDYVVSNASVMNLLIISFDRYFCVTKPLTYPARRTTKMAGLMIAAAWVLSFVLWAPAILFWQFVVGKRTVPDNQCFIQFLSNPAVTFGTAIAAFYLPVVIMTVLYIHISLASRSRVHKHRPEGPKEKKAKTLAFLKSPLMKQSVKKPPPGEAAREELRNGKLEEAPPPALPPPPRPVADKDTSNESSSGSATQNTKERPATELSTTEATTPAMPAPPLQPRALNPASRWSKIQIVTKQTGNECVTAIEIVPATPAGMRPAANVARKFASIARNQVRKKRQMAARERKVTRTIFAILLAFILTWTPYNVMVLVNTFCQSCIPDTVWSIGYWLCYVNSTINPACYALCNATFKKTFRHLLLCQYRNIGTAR
Description: CHRM4 Ca++ Flux Assay (agonist mode, FDSS 7000EX). Format: cell-based. The settings on record: for Emax: Percent Activity, read-out: M4 FDSS PA; for EC50: geometric mean if tested more than once, read-out: M4 FDSS EC50. The essentials:
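Agonist-mode response was expressed as percent of the Carbachol EC100 and fitted with four-parameter nonlinear regression over an 11-point triplicate dose series. Intracellular Ca++ was tracked for 3 min by fluorescent dye in CHO-K1 cells stably expressing human CHRM4. Cells were preincubated 60 min with 20 μM ATP in buffer containing 2.5 mM probenecid.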

Molecules are shown by their SMILES. Where only a bound is given, the exact number is not on record here.

T1 sequence (P20309 whole entry): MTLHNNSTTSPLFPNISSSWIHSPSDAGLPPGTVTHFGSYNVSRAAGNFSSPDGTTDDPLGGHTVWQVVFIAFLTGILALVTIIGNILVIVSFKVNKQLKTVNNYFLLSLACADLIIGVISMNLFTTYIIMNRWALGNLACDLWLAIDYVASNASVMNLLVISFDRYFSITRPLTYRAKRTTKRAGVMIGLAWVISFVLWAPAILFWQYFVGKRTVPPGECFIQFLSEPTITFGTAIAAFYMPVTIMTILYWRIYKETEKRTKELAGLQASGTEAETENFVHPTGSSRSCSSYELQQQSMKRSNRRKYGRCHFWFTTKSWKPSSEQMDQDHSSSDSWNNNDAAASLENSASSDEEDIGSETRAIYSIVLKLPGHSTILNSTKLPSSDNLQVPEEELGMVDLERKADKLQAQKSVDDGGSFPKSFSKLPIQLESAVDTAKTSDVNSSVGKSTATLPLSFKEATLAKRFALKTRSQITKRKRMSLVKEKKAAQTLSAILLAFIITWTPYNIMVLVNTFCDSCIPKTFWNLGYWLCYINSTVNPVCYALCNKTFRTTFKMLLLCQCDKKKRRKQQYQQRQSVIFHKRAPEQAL

`COC(C)(C)COc1ccccc1C1CCN([C@@H]2CCC3(C2)CN(C(=O)C2COC2)C3)CC1` [Example 7HH, (R)-(6-(4-(2-(2-methoxy-2-methylpropoxy)phenyl)piperidin-1-yl)-2-azaspiro[3.4]octan-2-yl)(oxetan-3-yl)methanone]: in assay [1], the Emax stood at 0% and the EC50 is greater than 25000 nM. In assay [2], the Emax was found to be 50% and the EC50 stood at 19 nM.

In the case of `CC(C)Oc1cc(F)ccc1C1CCN([C@@H]2CCC3(C2)CN(C(=O)C2COC2)C3)CC1` [Example 6D, (R)-(6-(4-(4-fluoro-2-isopropoxyphenyl)piperidin-1-yl)-2-azaspiro[3.4]octan-2-yl)(oxetan-3-yl)methanone], the Emax in assay [1] is 0%; in assay [2], 53%. The figures for the EC50 in assay [1] and in assay [2] were greater than 25000 nM and 11 nM, respectively.

In the case of `COCCOc1ccccc1C1CCN([C@@H]2CCC3(C2)CN(c2ccnnc2)C3)CC1` [Example 5Z, (R)-6-(4-(2-(2-methoxyethoxy)phenyl)piperidin-1-yl)-2-(pyridazin-4-yl)-2-azaspiro[3.4]octane], the Emax worked out at 0% in assay [1] and 44% in assay [2]. In addition, the EC50 in assay [1] is greater than 25000 nM; in assay [2], 42 nM.

For `COCCOc1ccccc1C1CCN([C@@H]2CCC3(C2)CN(c2nnco2)C3)CC1` [Example 2C], the Emax was 0% in assay [1] and 72% in assay [2]. For the same compound, the EC50 in assay [1] was greater than 25000 nM; in assay [2], 1 nM.

Consider `O=C(C1COC1)N1CC2(CC[C@@H](N3CCC(c4ccccc4OC4CC4)CC3)C2)C1` [Example 7A, (R)-(6-(4-(2-cyclopropoxyphenyl)piperidin-1-yl)-2-azaspiro[3.4]octan-2-yl)(oxetan-3-yl)methanone], for which, in assay [1], the Emax worked out at 9% and the EC50 amounted to 9780 nM. In addition, in assay [2], the Emax was 71% and the EC50 was 4 nM.

Turning to `c1ccc(C2CCN([C@@H]3CCC4(C3)CN(c3cncnc3)C4)CC2)c(O[C@@H]2CCOC2)c1` [Example 1P, (R)-2-(pyrimidin-5-yl)-6-(4-(2-(((R)-tetrahydrofuran-3-yl)oxy)phenyl)piperidin-1-yl)-2-azaspiro[3.4]octane], the Emax turned out to be 0% in assay [1] and 61% in assay [2]. Further, the EC50 is greater than 25000 nM in assay [1] and 1 nM in assay [2].

Turning to `FC1(COc2ccccc2C2CCN([C@@H]3CCC4(C3)CN(c3nncs3)C4)CC2)CCOCC1` [Example 1J, (R)-2-(6-(4-(2-((4-fluorotetrahydro-2H-pyran-4-yl)methoxy)phenyl)piperidin-1-yl)-2-azaspiro[3.4]octan-2-yl)-1,3,4-thiadiazole], in assay [1], the Emax was 0% and the EC50 was greater than 25000 nM. In assay [2], the Emax was determined as 50% and the EC50 stood at 6 nM.

For `CC(C)(O)COc1ccccc1C1CCN([C@@H]2CCC3(C2)CN(c2ncns2)C3)CC1` [Example 3K, (R)-1-(2-(1-(2-(1,2,4-thiadiazol-5-yl)-2-azaspiro[3.4]octan-6-yl)piperidin-4-yl)phenoxy)-2-methylpropan-2-ol], in assay [1], the Emax turned out to be 0% and the EC50 was greater than 25000 nM. Further, in assay [2], the Emax came out at 68% and the EC50 was determined as 5 nM.

Consider `CC(C)COc1ccccc1C1CCN([C@@H]2CCC3(C2)CN(C(=O)C2COC2)C3)CC1` [Example 7F, (R)-(6-(4-(2-isobutoxyphenyl)piperidin-1-yl)-2-azaspiro[3.4]octan-2-yl)(oxetan-3-yl)methanone], for which the Emax stood at 0% in assay [1] and 60% in assay [2]. The EC50 in assay [1] was greater than 25000 nM; in assay [2], 14 nM.

Consider `FC1(COc2ccccc2C2CCN([C@@H]3CCC4(C3)CN(c3nnco3)C4)CC2)CCOCC1` [Example 2D, (R)-2-(6-(4-(2-((4-fluorotetrahydro-2H-pyran-4-yl)methoxy)phenyl)piperidin-1-yl)-2-azaspiro[3.4]octan-2-yl)-1,3,4-oxadiazole], for which, in assay [1], the Emax is 0% and the EC50 is greater than 25000 nM. Also, in assay [2], the Emax turned out to be 72% and the EC50 stood at 1 nM.

As to `c1ccc(C2CCN([C@@H]3CCC4(C3)CN(c3cncnc3)C4)CC2)c(OCC2CCOCC2)c1` [Example 1M, (R)-2-(pyrimidin-5-yl)-6-(4-(2-((tetrahydro-2H-pyran-4-yl)methoxy)phenyl)piperidin-1-yl)-2-azaspiro[3.4]octane], in assay [1], the Emax is 0% and the EC50 is greater than 25000 nM. Also, in assay [2], the Emax is 53% and the EC50 turned out to be 3 nM.

On to `c1ccc(C2CCOC2)c(C2CCN([C@@H]3CCC4(C3)CN(c3nnco3)C4)CC2)c1` (stereo partly drawn) [Example 2K, 2-((6R)-6-(4-(2-(tetrahydrofuran-3-yl)phenyl)piperidin-1-yl)-2-azaspiro[3.4]octan-2-yl)-1,3,4-oxadiazole], for which, in assay [1], the Emax was determined as 0% and the concentration for a half-maximal effect (EC50) is greater than 25000 nM. For the same compound, in assay [2], the Emax stood at 93% and the EC50 is 3 nM.

In the case of `c1ccc(C2CCN([C@@H]3CCC4(C3)CN(c3nncs3)C4)CC2)c(OC[C@@H]2COCCO2)c1` [Example 3C, 2-((R)-6-(4-(2-(((S)-1,4-dioxan-2-yl)methoxy)phenyl)piperidin-1-yl)-2-azaspiro[3.4]octan-2-yl)-1,3,4-thiadiazole], in assay [1], the Emax is 0% and the EC50 was greater than 25000 nM. For the same compound, in assay [2], the Emax came out at 66% and the EC50 worked out at 2 nM.

In the case of `c1ccc(C2CCN([C@@H]3CCC4(C3)CN(c3cncnc3)C4)CC2)c(C2CCOCC2)c1` [Example 5BB, (R)-2-(pyrimidin-5-yl)-6-(4-(2-(tetrahydro-2H-pyran-4-yl)phenyl)piperidin-1-yl)-2-azaspiro[3.4]octane], the Emax in assay [1] was 0%; in assay [2], 80%. Moreover, the EC50 in assay [1] was greater than 25000 nM; in assay [2] it was 17 nM.

As for `Fc1cncc(N2CC3(CC[C@@H](N4CCC(c5ccccc5C5CCOCC5)CC4)C3)C2)c1` [Example 5AA, (R)-2-(5-fluoropyridin-3-yl)-6-(4-(2-(tetrahydro-2H-pyran-4-yl)phenyl)piperidin-1-yl)-2-azaspiro[3.4]octane], in assay [1], the Emax was 0% and the EC50 is greater than 25000 nM. In assay [2], the Emax stood at 83% and the EC50 amounted to 10 nM.

Regarding `c1ccc(C2CCN([C@@H]3CCC4(C3)CN(c3nnco3)C4)CC2)c(-c2ncco2)c1` [Example 2M, (R)-2-(6-(4-(2-(oxazol-2-yl)phenyl)piperidin-1-yl)-2-azaspiro[3.4]octan-2-yl)-1,3,4-oxadiazole], in assay [1], the Emax was found to be 0% and the EC50 is greater than 25000 nM. Moreover, in assay [2], the Emax amounted to 82% and the EC50 worked out at 6 nM.

With `CC(C)(F)COc1ccccc1C1CCN([C@@H]2CCC3(C2)CN(C(=O)C2COC2)C3)CC1` [Example 7B, (R)-(6-(4-(2-(2-fluoro-2-methylpropoxy)phenyl)piperidin-1-yl)-2-azaspiro[3.4]octan-2-yl)(oxetan-3-yl)methanone], in assay [1], the Emax was found to be 0% and the EC50 was greater than 25000 nM. Further, in assay [2], the Emax turned out to be 44% and the EC50 stood at 4 nM.

As to `O=C(C1COC1)N1CC2(CC[C@@H](N3CCC(c4ccccc4OCC(F)F)CC3)C2)C1` [Example 7JJ, (R)-(6-(4-(2-(2,2-difluoroethoxy)phenyl)piperidin-1-yl)-2-azaspiro[3.4]octan-2-yl)(oxetan-3-yl)methanone], in assay [1], the Emax amounted to 0% and the EC50 was greater than 25000 nM. For the same compound, in assay [2], the Emax was 49% and the EC50 stood at 2 nM.

For the compound `CC(C)(O)COc1ccccc1C1CCN([C@@H]2CCC3(C2)CN(c2ncncn2)C3)CC1` [Example 5U, (R)-1-(2-(1-(2-(1,3,5-triazin-2-yl)-2-azaspiro[3.4]octan-6-yl)piperidin-4-yl)phenoxy)-2-methylpropan-2-ol], in assay [1], the Emax is 0% and the EC50 is greater than 25000 nM. Moreover, in assay [2], the Emax came out at 49% and the EC50 was determined as 28 nM.

Regarding `CC(C)(O)COc1ccccc1C1CCN([C@@H]2CCC3(C2)CN(c2nnco2)C3)CC1` [Example 2A, (R)-1-(2-(1-(2-(1,3,4-oxadiazol-2-yl)-2-azaspiro[3.4]octan-6-yl)piperidin-4-yl)phenoxy)-2-methylpropan-2-ol], in assay [1], the Emax worked out at 0% and the EC50 was greater than 25000 nM. For the same compound, in assay [2], the Emax turned out to be 69% and the EC50 was 10 nM.

`c1ccc(C2CCN([C@@H]3CCC4(C3)CN(c3cncnc3)C4)CC2)c(OC2CCOCC2)c1` [Example 1L, (R)-2-(pyrimidin-5-yl)-6-(4-(2-((tetrahydro-2H-pyran-4-yl)oxy)phenyl)piperidin-1-yl)-2-azaspiro[3.4]octane]: in assay [1], the Emax came to 0% and the EC50 was greater than 25000 nM. In addition, in assay [2], the Emax is 67% and the EC50 was 2 nM.
